Like-named read-outs stand apart in the source and are kept apart here. Marks after values point to notes of the source that are not given here. Where no end group is shown, it is not given here.
Key:
[1] = Particle size distribution; type: physicochemical; details: 1 mg/mL solution, 25 °C, Zetasizer Nano ZSE
Method: (§1) An appropriate amount of […] and […]-Fe solutions with a concentration of 1 mg/mL were added to U-shaped cuvettes and equilibrated at a constant temperature of 25 °C for 5 s. The Zeta potential values and particle size distributions of the samples were determined using a Zetasizer Nano ZSE analyzer to evaluate their surface charge characteristics and solution stability.

Zeta potential = type: physicochemical; details: 1 mg/mL solution, 25 °C, Zetasizer Nano ZSE
Method: as §1

Thermogravimetry (TG) = type: physicochemical; details: TAEDKKLIQ from 249 °C to 426 °C; TAEDKKLIQ-Fe from 638 °C to 686 °C; 10 °C/min
Method: 5 mg of […] and […]-Fe lyophilized powders were weighed, respectively, and the thermal stability analysis was carried out by […]. The sample chamber temperature range is set from 50 to 800 °C, with a heating rate of 10 °C/min. The thermogravimetric change curves of the samples were recorded synchronously.

[2] = Temperature and pH stability test (iron retention); type: physicochemical; details: 1 mg/mL aqueous solution, 2 h
Method: The temperature stability of […]-Fe was determined using the method described by [Qu et al. (2022)]. The aqueous solution of […]-Fe (1 mg/mL) was incubated for 2 h at a temperature gradient of 30–80 °C and a pH gradient of 2–9. […]-Fe was separated using the alcohol precipitation method to calculate the iron retention rate:(2) Iron retention%=A−A0/A×100% where A represents the total iron content added to the reaction (mmol/mL), A0 represents the iron ion content in the supernatant after the reaction (mmol/mL).

Caco-2 cells = experiment: Caco-2 cell viability assay (MTT); type: cell-based; details: 24 h, 490 nm, means ± SEM
Method: Caco-2 cell viability assay was conducted on […]-Fe according to the method of [Wu et al. (2019)]. And lactoferrin was chosen as an experimental control. When the cell fusion rate was close to 80 %, the cells were dissociated and passaged using the trypsin-EDTA mixed digest. Cultivate the 23rd generation of cells in the logarithmic growth phase at 37 °C and 5 % CO₂ for 24 h. Then, a gradient concentration of […]-Fe and Ac-[…]-Fe was added to the wells of the experimental group, and all the samples were incubated for 24 h. After incubation, 20 μL of MTT reagent was added to each well. After 2 h of reaction, 150 μL of DMSO was added and agitated for 10 min. The absorbance values at 490 nm were measured to reflect cell activity levels. Cell relative activity (%) was calculated:(3) Relative cell viability%=As−Ab/Ac−Ab×100 where: As represents the absorbance value of the sample treatment, Ab represents the absorbance value without cells, and Ac represents the absorbance value without sample treatment.

[3] = Intermolecular force analysis with dissociation reagents; type: physicochemical; details: 2 mg/mL, read at 500 nm
Method: Referring to the study by [Sun et al. (2020)], the intermolecular forces of […]-Fe were analyzed using different dissociation reagents. The absorbance values at 500 nm of the sample solution (2 mg/mL) were measured at the initial moment of the reaction (0 min) and after 30 min, respectively. At 30 min of the reaction, 1 mol/L NaCl, 30 mmol/L DTT (dithiothreitol), 0.5 % SDS, and 6 mol/L urea were added sequentially, followed immediately by absorbance detection using an enzyme meter.

[4] = In vitro digestive simulation (iron retention); type: in vitro ADME
Method: In vitro simulated digestion of […] according to [Ding et al. (2025)]. […] To simulate the digestive processes of the stomach and intestines separately, the pH values of the three iron supplements were adjusted to 2.0 and 7.6, respectively, and pepsin and trypsin (3 %, w/w) were added separately. The mixture was incubated in a water bath at 37 °C for 2 h. To simulate the digestive processes of the gastrointestinal tract, the three iron supplements were subjected to simulated gastric digestion followed by intestinal digestion. The retention rates of iron after gastric digestion, intestinal digestion, and simulated gastrointestinal digestion were determined according to the method described in Section 2.9.1.

[5] = Effect of different dietary components on iron retention; type: in vitro ADME
Method: Then, the pH was adjusted to 2.0, and oxalic acid solution (1 %, w/v) was added. Gastrointestinal digestion simulation was then performed under the conditions described in 2.9.2. After the reaction was complete, the enzyme was inactivated, and the supernatant was collected after centrifugation. To assess the effects of phytate and dietary fiber on iron absorption, 1 % phytate and 8 % dietary fiber were added to the sample solution, and the digestion and measurement steps were repeated. By comparing changes in iron retention under different treatment conditions, the impacts of phytate and dietary fiber on the stability of […] chelate were analyzed. For calculations of iron retention rates, refer to Section 2.9.1.

[6] = Iron chelating rate (alcohol precipitation method); type: binding; details: synthesized peptide 1 mg/mL, pH 5 sodium acetate buffer, 1 mL + 2 mL FeCl2•4H2O 1.5 mM, 37 °C, 30 min, means ± SEM, three independent experiments
Method: The detection of iron chelation activity was performed using the method described by [Lin et al. (2021)]. The peptide solution was prepared using sodium acetate buffer. Subsequently, 1 mL of the peptide solution (1 mg/mL, pH 5) was mixed with 2 mL of FeCl₂•4H₂O (1.5 mM) and reacted at 37 °C for 30 min. Then, the alcohol precipitation method was used to determine the chelation rate of ferrous ions:(1) Iron chelating rate%=A−A1/A×100% where: A is the total amount of ions added; A1 is the content of free ions in the supernatant.
The peptides identified by mass spectrometry were synthesized by China Qiangyao Co., Ltd. (Shanghai, China) using Fmoc-protected amino acid solid-phase peptide synthesis, with the purity of these peptides evaluated at over 98 %. The ferrous ion chelating activity was verified using the method described in Section 2.3.

## TAEDKKLIQ-Fe
[1]
  Particle size, peak of the distribution: 295 nm
Zeta potential
  Zeta potential: 41.8 mV
Thermogravimetry (TG)
  Weight loss, second stage (TG): 12.32%
[2]; alcohol precipitation
  Ferrous ion retention at 30 °C to 40 °C: no significant loss observed
[2]; pH range 6-9
  Iron retention, pH 6-9: above 88%
[2]; temperature gradient 30-80 °C, above 40 °C
  Overall retention of ferrous ions as the temperature continued to increase: above 40%
Caco-2 cells; Caco-2, 0.125 mg/mL
  Relative vitality of cells (%): 98.06 ± 1.22%
Caco-2 cells; Caco-2, 0.25 mg/mL
  Relative vitality of cells (%): 97.72 ± 1.67%
Caco-2 cells; Caco-2, 0.5 mg/mL
  Relative vitality of cells (%): 97.53 ± 0.89%
Caco-2 cells; Caco-2, 1 mg/mL
  Relative vitality of cells (%): 97.21 ± 1.45%
[3]; 30 mmol/L DTT added at 30 min, disulfide bonds
  Decrease in transmittance after DTT: 0.138
[3]; 0.5 % SDS added at 30 min, hydrophobic forces
  Decrease in transmittance after SDS: 0.103
[3]; 1 mol/L NaCl added at 30 min, electrostatic interactions
  Decrease in transmittance after NaCl: 0.20
[3]; 6 mol/L urea added at 30 min, hydrogen bonding
  Decrease in transmittance after urea: 0.09
[4]
  Iron retention in simulated digestion compared with the control iron supplements: superior to that of ferrous sulfate and ferrous gluconate
[5]
  Retention of soluble iron with phytic acid: 76.73%
  Soluble iron content in the presence of phytic acid, oxalic acid or dietary fiber alone (rank): highest level

## TAEDKKLIQ
[4]; pH 7.6, trypsin 3 % w/w, 37 °C, 2 h, after gastric phase
  Ferrous retention after transfer to simulated intestinal fluid digestion: significant increase in ferrous retention

## LSDLHAHKLR [Hemoglobin subunit alpha-A(84th–93th) peptide, synthesized]
[6]
  Chelation rate (%): 87.07 ± 0.12^b %

## O=C([O-])[C@H](O)[C@@H](O)[C@H](O)[C@H](O)CO.O=C([O-])[C@H](O)[C@@H](O)[C@H](O)[C@H](O)CO.[Fe+2] [ferrous gluconate, reference compound]
[5]; 1 % oxalic acid, 1 % phytate or 8 % dietary fiber, then simulated gastrointestinal digestion, 37 °C
  Soluble iron content in the presence of phytic acid, oxalic acid or dietary fiber alone (rank): lower

## QAWEKAASH [Hemoglobin subunit alpha-D(12th–20th) peptide, synthesized]
[6]
  Chelation rate (%): 81.38 ± 0.27^c %

Reference: publication PMC12720113, “The binding mechanism of a novel ferrous ion chelating peptide from chicken blood hemoglobin and the bioavailability of the chelate” (Food Chemistry: X, 2025)
